According to US7795239B2, “Saccharide compositions and method of use” (Mueller Medical International LLC, priority 1992, dated 2010):

Set-up: AUC for Cimetidine / AUC for Ranitidine: unit not given beside the values
Details: in vivo

AUC for Cimetidine | dissolved drug not absorbed from the GI tract into the blood stream | AUC for Ranitidine | SMILES
54.3 | 15-20% | – | CN/C(=N/CCSCc1nc[nH]c1C)NC#N [cimetidine]
– | 15-20% | – | NC(N)=Nc1nc(CSCCC(N)=NS(N)(=O)=O)cs1 [famotidine]
– | 15-20% | 55.2 | CNC(=C[N+](=O)[O-])NCCSCc1ccc(CN(C)C)o1 [ranitidine]
